One compound from PMC6422671 (British Journal of Clinical Pharmacology, 2019) can be followed below.

Like-named read-outs stand apart in the source and are kept apart here.

The nature of this data set: Urinary pharmacokinetics after single oral dose, phase I. The class given is in vivo, healthy men. As to conditions: male, human, urine. Here is the method:
Urine was collected for pharmacokinetic analyses before dosing (spot sample) and 0–3, 3–6, 6–9, 9–12, 12–24, 24–36 and 36–48 hours after dosing (pooled samples). Samples for determination of AZD4831 in urine were analysed by Covance Laboratories Ltd. (Harrogate, UK). […] This method was validated prior to sample analysis in the range 20–20 000 nmol L^−1 in urine, using a 25 μL sample aliquot.

In the case of `C[C@@H](N)c1cc(Cl)ccc1Cn1c(=S)[nH]c(=O)c2[nH]ccc21` [AZD4831], the CL renal is 252 mL/min (5 mg, 5 mg fasted, geometric mean (CV), read-out: CLR (converted)); 257 mL/min (5 mg, 5 mg fasted, read-out: mean renal clearance (converted)); 240 mL/min (15 mg, 15 mg fasted, geometric mean (CV), read-out: CLR (converted)); 162 mL/min (45 mg, 45 mg fasted, geometric mean (CV), read-out: CLR (converted)); 157 mL/min (135 mg, 135 mg fasted, geometric mean (CV), read-out: CLR (converted)); 132 mL/min (405 mg, 405 mg fasted, geometric mean (CV), read-out: CLR (converted)). Besides, where the note is “405 mg, 405 mg fasted, read-out: mean renal clearance (converted)”, the CL renal is 148 mL/min.
